Assays:
Test in all cases: biochemical
ALK(C1156Y) = ALK(C1156Y) (Homo sapiens, UniProt Q9UM73, C1156Y)
Procedure, shortened: (§1)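 Reactions at room temperature in HEPES buffer (20 mM, pH 7.5, 0.01% Triton X-100, 2 mM DTT) lasted 1 or 5 h depending on kinase, with substrate peptide and ATP-metal. Phosphorylation read by electrophoretic mobility shift or IMAP polarization; kinase activity computed as P/(P + S).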

ALK(G1202R) = ALK(G1202R) (Homo sapiens, UniProt Q9UM73, G1202R)
Procedure, shortened: as §1

BLK = BLK (Homo sapiens, UniProt P51451)
Procedure, shortened: as §1

BRSK1 = BRSK1 (Homo sapiens, UniProt Q8TDC3)
Sequence of BRSK1 (Q8TDC3 whole entry): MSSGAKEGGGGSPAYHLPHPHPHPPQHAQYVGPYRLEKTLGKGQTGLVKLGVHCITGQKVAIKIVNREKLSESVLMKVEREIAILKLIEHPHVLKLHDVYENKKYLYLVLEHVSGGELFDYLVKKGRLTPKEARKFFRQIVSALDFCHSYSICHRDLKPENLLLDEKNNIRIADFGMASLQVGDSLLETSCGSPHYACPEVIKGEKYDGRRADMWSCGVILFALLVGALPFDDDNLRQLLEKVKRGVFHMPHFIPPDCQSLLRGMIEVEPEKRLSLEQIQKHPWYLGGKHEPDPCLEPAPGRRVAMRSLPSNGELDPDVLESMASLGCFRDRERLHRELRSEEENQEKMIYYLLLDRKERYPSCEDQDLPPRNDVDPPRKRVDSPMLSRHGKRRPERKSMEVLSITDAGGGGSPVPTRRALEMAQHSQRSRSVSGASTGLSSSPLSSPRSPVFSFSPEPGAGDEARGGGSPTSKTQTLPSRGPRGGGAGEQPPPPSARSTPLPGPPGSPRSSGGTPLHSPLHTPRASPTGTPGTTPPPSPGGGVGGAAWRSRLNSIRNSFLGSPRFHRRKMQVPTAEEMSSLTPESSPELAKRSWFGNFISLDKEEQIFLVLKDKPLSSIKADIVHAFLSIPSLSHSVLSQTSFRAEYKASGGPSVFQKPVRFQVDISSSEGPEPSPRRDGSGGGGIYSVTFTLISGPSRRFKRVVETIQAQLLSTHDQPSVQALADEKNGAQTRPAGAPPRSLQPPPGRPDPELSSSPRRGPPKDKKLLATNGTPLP
Procedure, shortened: as §1

BRSK2 = BRSK2 (Homo sapiens, UniProt Q8IWQ3)
Procedure, shortened: as §1

CK1ε = target: T1, CK1ε (Homo sapiens, UniProt P49674)
T1 construct: gene CSNK1E
Procedure, shortened: as §1

CaMK1δ = target: T2, CaMK1δ (Homo sapiens, UniProt Q8IU85)
T2 construct: gene CAMK1D
Procedure, shortened: as §1

CaMK2γ = target: T3, CaMK2γ (Homo sapiens, UniProt Q13555)
T3 construct: gene CAMK2G
T3 sequence (Q13555 whole entry): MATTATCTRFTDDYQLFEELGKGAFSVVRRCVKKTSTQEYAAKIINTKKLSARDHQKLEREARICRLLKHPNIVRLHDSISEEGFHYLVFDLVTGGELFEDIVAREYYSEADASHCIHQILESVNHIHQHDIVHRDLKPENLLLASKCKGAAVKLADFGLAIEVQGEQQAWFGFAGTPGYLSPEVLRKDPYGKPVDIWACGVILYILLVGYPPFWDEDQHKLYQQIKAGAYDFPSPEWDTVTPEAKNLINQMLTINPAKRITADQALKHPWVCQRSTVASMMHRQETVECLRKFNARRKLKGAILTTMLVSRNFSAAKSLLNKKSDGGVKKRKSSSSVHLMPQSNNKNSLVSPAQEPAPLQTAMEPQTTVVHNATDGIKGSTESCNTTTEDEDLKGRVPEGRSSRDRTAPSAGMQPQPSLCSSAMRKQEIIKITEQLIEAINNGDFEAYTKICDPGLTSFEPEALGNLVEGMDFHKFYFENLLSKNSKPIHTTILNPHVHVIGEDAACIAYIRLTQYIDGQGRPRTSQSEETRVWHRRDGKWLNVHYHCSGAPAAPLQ
Procedure, shortened: as §1

DAPK1 = DAPK1 (Homo sapiens, UniProt P53355)
Procedure, shortened: as §1

EGFR(L858R) = EGFR(L858R) (Homo sapiens, UniProt P00533, L858R)
Procedure, shortened: as §1

EPHA3 = EPHA3 (Homo sapiens, UniProt P29320)
Procedure, shortened: as §1

EPHA5 = EPHA5 (Homo sapiens, UniProt P54756)
Procedure, shortened: as §1

EPHA6 = EPHA6 (Homo sapiens, UniProt Q9UF33)
Procedure, shortened: as §1

EPHB3 = EPHB3 (Homo sapiens, UniProt P54753)
Procedure, shortened: as §1

FYN(isoform b) = target: T4, FYN(isoform b) (Homo sapiens, UniProt P06241)
T4 construct: isoform b
T4 sequence (P06241 whole entry, canonical isoform): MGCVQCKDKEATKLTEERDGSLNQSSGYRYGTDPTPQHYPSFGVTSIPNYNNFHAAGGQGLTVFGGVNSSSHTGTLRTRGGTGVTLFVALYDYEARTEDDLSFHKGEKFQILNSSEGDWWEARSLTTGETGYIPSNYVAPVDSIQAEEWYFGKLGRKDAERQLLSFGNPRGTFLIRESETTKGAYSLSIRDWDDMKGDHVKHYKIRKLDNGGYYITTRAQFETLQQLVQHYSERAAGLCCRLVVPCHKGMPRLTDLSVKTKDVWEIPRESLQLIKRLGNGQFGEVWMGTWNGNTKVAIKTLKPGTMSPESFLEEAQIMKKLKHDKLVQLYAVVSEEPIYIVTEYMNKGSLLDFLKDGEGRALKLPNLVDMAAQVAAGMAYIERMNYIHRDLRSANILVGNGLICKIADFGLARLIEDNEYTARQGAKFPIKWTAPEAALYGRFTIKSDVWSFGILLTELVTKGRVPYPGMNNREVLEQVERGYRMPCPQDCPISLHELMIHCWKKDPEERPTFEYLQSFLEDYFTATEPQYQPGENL
Procedure, shortened: as §1

KIT(D816E) = KIT(D816E) (Homo sapiens, UniProt P10721, D816E)
Procedure, shortened: as §1

MET(D1228H) = MET(D1228H) (Homo sapiens, UniProt P08581, D1228H)
Procedure, shortened: as §1

MET(Y1235D) = MET(Y1235D) (Homo sapiens, UniProt P08581, Y1235D)
Sequence of MET(Y1235D) (P08581 whole entry Y1235D): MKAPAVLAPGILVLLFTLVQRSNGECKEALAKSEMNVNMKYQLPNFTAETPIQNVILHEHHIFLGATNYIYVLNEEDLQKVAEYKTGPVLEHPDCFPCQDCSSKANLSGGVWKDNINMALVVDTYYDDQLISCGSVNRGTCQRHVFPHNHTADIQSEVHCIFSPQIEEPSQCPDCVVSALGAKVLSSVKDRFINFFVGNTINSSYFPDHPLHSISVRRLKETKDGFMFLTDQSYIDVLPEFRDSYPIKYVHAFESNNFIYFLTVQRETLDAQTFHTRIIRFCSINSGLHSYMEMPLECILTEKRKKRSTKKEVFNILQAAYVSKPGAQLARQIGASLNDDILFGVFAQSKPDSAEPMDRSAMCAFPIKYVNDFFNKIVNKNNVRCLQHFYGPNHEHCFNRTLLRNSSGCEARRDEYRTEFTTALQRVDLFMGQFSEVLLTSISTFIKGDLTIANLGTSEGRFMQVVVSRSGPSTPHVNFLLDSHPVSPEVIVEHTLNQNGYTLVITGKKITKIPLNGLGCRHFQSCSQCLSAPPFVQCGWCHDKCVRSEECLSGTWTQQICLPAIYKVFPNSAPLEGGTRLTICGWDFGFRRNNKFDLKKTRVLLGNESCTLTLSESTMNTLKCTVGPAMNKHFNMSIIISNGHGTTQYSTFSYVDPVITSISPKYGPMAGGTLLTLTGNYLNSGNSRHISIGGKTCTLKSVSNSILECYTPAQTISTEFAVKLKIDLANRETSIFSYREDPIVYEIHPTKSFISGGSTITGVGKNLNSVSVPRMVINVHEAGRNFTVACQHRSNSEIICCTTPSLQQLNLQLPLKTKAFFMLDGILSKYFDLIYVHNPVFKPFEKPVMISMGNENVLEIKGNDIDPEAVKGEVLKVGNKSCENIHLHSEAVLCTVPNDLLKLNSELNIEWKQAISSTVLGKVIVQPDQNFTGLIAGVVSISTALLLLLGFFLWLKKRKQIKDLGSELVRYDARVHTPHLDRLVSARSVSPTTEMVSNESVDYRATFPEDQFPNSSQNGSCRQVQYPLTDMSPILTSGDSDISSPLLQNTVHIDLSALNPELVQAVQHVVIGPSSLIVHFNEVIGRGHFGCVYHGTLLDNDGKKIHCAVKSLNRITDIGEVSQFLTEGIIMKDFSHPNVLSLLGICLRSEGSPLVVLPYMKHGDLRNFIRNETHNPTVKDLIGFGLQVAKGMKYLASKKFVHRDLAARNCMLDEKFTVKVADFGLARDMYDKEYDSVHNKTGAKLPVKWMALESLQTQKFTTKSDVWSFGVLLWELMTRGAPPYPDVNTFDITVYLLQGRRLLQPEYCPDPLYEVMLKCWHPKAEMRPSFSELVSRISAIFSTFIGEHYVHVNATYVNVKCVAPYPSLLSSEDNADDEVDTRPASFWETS
Procedure, shortened: as §1

MRCKα = target: T5, MRCKα (Homo sapiens, UniProt Q5VT25)
T5 construct: gene CDC42BPA
T5 sequence (Q5VT25 whole entry): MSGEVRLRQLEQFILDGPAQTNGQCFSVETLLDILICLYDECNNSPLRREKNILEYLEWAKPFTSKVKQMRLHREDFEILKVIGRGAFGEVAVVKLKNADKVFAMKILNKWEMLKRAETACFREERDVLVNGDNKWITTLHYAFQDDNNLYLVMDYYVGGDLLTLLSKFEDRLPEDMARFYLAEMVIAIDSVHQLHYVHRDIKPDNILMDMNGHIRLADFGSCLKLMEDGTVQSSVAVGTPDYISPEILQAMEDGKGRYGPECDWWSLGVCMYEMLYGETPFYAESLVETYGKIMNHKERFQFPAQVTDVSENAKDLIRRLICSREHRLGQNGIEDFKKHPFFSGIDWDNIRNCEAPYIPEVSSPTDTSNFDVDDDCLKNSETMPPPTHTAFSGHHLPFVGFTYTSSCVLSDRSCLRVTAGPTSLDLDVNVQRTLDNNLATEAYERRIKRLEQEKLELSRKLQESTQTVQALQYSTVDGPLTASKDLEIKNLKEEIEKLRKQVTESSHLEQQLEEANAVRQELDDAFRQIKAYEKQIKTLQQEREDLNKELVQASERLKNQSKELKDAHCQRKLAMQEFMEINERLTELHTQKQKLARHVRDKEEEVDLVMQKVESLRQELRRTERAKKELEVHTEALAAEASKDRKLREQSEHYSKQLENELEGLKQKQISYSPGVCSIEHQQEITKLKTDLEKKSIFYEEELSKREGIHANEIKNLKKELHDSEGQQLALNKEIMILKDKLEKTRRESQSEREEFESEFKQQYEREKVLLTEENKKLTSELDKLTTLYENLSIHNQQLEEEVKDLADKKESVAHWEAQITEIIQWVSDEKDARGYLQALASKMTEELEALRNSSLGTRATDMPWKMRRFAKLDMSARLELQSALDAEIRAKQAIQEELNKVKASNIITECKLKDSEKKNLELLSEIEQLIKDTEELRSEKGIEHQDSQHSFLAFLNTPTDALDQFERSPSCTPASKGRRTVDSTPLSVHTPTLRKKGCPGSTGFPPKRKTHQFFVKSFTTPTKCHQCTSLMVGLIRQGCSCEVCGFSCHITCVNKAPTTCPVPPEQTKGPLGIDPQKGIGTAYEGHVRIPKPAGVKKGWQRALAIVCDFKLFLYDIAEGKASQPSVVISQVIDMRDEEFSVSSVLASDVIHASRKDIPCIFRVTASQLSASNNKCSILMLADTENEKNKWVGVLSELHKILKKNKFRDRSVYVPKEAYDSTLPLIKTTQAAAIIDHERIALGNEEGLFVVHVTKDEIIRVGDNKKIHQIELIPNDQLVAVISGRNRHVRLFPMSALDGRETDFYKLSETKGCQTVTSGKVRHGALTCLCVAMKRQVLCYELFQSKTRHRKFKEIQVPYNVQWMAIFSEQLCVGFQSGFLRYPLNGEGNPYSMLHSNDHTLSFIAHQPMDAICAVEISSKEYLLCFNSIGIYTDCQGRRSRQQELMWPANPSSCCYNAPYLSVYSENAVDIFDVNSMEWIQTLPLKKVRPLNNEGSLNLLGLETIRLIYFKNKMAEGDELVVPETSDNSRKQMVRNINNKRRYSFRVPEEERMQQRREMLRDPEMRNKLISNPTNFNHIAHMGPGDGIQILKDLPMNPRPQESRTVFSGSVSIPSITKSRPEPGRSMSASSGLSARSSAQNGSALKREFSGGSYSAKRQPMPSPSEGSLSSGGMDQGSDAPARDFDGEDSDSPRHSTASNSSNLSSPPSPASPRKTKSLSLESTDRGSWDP
Procedure, shortened: as §1

MSK2 = target: T6, MSK2 (Homo sapiens, UniProt O75676)
T6 construct: gene RPS6KA4
Procedure, shortened: as §1

PDGFRα(V561D) = target: T7, PDGFRα(V561D) (Homo sapiens, UniProt P16234, V561D)
T7 construct: gene PDGFRA
Procedure, shortened: as §1

PHKG1 = PHKG1 (Homo sapiens, UniProt Q16816)
Procedure, shortened: as §1

PKCγ = target: T8, PKCγ (Homo sapiens, UniProt P05129)
T8 construct: gene PRKCG
Procedure, shortened: as §1

PKCζ = target: T9, PKCζ (Homo sapiens, UniProt Q05513)
T9 construct: gene PRKCZ
Procedure, shortened: as §1

RET = RET (Homo sapiens, UniProt P07949)
Procedure, shortened: as §1

RSK2 = target: T10, RSK2 (Homo sapiens, UniProt P51812)
T10 construct: gene RPS6KA3
Procedure, shortened: as §1

TBK1 = TBK1 (Homo sapiens, UniProt Q9UHD2)
Procedure, shortened: as §1

TRKA = target: T11, TRKA (Homo sapiens, UniProt P04629)
T11 construct: gene NTRK1
Procedure, shortened: as §1

WNK2 = WNK2 (Homo sapiens, UniProt Q9Y3S1)
Procedure, shortened: as §1

YES(T348I) = target: T12, YES(T348I) (Homo sapiens, UniProt P07947, T348I)
T12 construct: gene YES1
Procedure, shortened: as §1

Q: How did the inhibition at 1 µM (ALK(C1156Y)) turn out when c1cc(-c2ccc3[nH]ncc3c2)ccn1 [TG693, 5-(4-pyridinyl)-1H-indazole] was run?
A: 0.1%

Q: What about the inhibition at 1 µM (ALK(G1202R)) of the same molecule?
A: 3.8%

Q: What about the inhibition at 1 µM (BLK) of the same molecule?
A: -2.2%

Q: And the inhibition at 1 µM (BRSK1)?
A: 1.1%

Q: What about the inhibition at 1 µM (BRSK2) of the same molecule?
A: 6.7%

Q: What about the inhibition at 1 µM (CK1ε) of the same molecule?
A: 8%

Q: What about the inhibition at 1 µM (CaMK1δ) of the same molecule?
A: 7%

Q: What about the inhibition at 1 µM (CaMK2γ) of the same molecule?
A: -2.4%

Q: What about the inhibition at 1 µM (DAPK1) of the same molecule?
A: -1.8%

Q: And the inhibition at 1 µM (EGFR(L858R))?
A: 0.4%

Q: What about the inhibition at 1 µM (EPHA3) of the same molecule?
A: 0.4%

Q: What about the inhibition at 1 µM (EPHA5) of the same molecule?
A: -7.5%

Q: And the inhibition at 1 µM (EPHA6)?
A: -3.5%

Q: What about the inhibition at 1 µM (EPHB3) of the same molecule?
A: -0.5%

Q: And the inhibition at 1 µM (FYN(isoform b))?
A: 0.6%

Q: What about the inhibition at 1 µM (KIT(D816E)) of the same molecule?
A: -6.8%

Q: And the inhibition at 1 µM (MET(D1228H))?
A: 0.6%

Q: And the inhibition at 1 µM (MET(Y1235D))?
A: -2%

Q: And the inhibition at 1 µM (MRCKα)?
A: -18.2%

Q: What about the inhibition at 1 µM (MSK2) of the same molecule?
A: -5.1%

Q: And the inhibition at 1 µM (PDGFRα(V561D))?
A: 2.7%

Q: And the inhibition at 1 µM (PHKG1)?
A: 0%

Q: What about the inhibition at 1 µM (PKCγ) of the same molecule?
A: -11.4%

Q: And the inhibition at 1 µM (PKCζ)?
A: -9.7%

Q: And the inhibition at 1 µM (RET)?
A: 4.8%

Q: And the inhibition at 1 µM (RSK2)?
A: 2.1%

Q: And the inhibition at 1 µM (TBK1)?
A: 5.8%

Q: And the inhibition at 1 µM (TRKA)?
A: 5.1%

Q: And the inhibition at 1 µM (WNK2)?
A: 4%

Q: What about the inhibition at 1 µM (YES(T348I)) of the same molecule?
A: -1.4%

— PMC5448077, “Development of an orally available inhibitor of CLK1 for skipping a mutated dystrophin exon in Duchenne muscular dystrophy” (Scientific Reports, 2017)
